Laboratory results taken from patent US10155740B2 (F.I.S.—FABBRICA ITALIANA SINTETICI S.P.A., priority 2016, dated 2018).
Entries after “also recorded” stand apart in the source; their conditions may differ. Like-named read-outs stand apart in the source and are kept apart here.

What was measured:
[1] = Preliminary solubility study of Pomalidomide Form O in a range of solvents; type: physicochemical; details: for solubility: thermodynamic from solid
Description: A preliminary study of the solubility of Pomalidomide Form O was performed in a range of solvents and under the operating conditions given in the following table 5: […]

[2] = 37° C., cited from earlier work
[3] = pH 1.2, 4.5 and 6.8, cited from earlier work
[4] = cited from earlier work
[5] = Moisture stability test of Form M (RH 100%, XRPD); type: physicochemical; details: 100% relative humidity, one night, room temperature
Description: Pomalidomide Form M was subjected to a moisture stability test. 100 mg of Pomalidomide Form M, prepared as described above, were maintained for one night at 100% relative humidity (RH 100%), at room temperature and analyzed by XRPD.

[6] = Relative stability of crystal forms from preparation tests by suspension in solvent; type: physicochemical; details: suspension in solvent (slurrying) tests
Description: The crystal form of Pomalidomide, named Form M, can be prepared by suspension of the form O under stirring for a night in isopropanol (slurrying) after seeding with Form B.
An alternative method for the preparation of Form M prescribes suspending the form O under stirring for four days (slurrying) in dioxane and seeding with Form A, as described in the present experimental part.
1 g of Pomalidomide Form O prepared as in Example 1, was suspended in 20 ml of isopropanol, seeded with crystals of Pomalidomide Form B and stirred overnight at room temperature, giving after filtration and drying, the new Pomalidomide Form M as crystalline powder.

Compound: Nc1cccc2c1C(=O)N(C1CCC(=O)NC1=O)C2=O (racemic) [Pomalidomide Form O]
- solubility in AcOiBu ([1]; RT): >80 vol RT;
- solubility in Anisole ([1]; RT): >80 vol. RT;
- solubility in CHCl3 ([1]; RT): >80 vol. RT;
- solubility in DMF ([1]; RT): 26 vol.
- solubility in DMSO ([1]; RT): 6 vol.
- solubility in Dioxane ([1]; RT): >80 vol. RT
- solubility in Et2O ([1]; RT): >80 vol. RT;
- solubility in MIBK ([1]; RT): >80 vol. RT;
- solubility in MeNO2 ([1]; RT): >80 vol. RT;
- solubility in NMP ([1]; RT): 8 vol.
- solubility ([1]; ethanol, organic solvent or mixture, RT, read-out: solubility in EtOH): < 1000 µg/mL
- solubility in AcOiBu ([1]; reflux): >80 vol.
- solubility in Anisole ([1]; reflux): >80 vol.
- solubility in CHCl3 ([1]; reflux): >80 vol.
- solubility in Dioxane ([1]; reflux): <80 vol.
- solubility in Et2O ([1]; reflux): >80 vol.
- solubility in MIBK ([1]; reflux): >80 vol.
- solubility in MeNO2 ([1]; reflux): <80 vol. reflux
- solubility ([1]; water, RT, read-out: solubility in H2O): < 1000 µg/mL

Compound: Nc1cccc2c1C(=O)N(C1CCC(=O)NC1=O)C2=O (racemic) [Pomalidomide, (R,S)-4-Amino-2-(2,6-dioxo-3-piperidinyl)-isoindol-1,3-dione]
- Pomalidomide solubility after 24 hours ([2]; pH 1.2 (0.05N HCl)): 15.0 µg/mL
- Pomalidomide solubility after 24 hours ([2]; pH 4.5 (0.05M acetato)): 14.6 µg/mL
- Pomalidomide solubility after 24 hours ([2]; pH 6.8 (0.05M fosfato)): 13.2 µg/mL
- solubility of dose in 250 ml of aqueous medium ([3]; clinical dose of 4 mg): is not
- solubility of dose in 250 ml of aqueous medium ([3]; dose of 2 mg): soluble
- solubility in organic solvents ([4]; absolute ethanol, ethyl acetate, heptane, methanol, 2-propanol, toluene): very slightly soluble
- solubility in organic solvents ([4]; acetone, acetonitrile, methylene chloride, methyl ethyl ketone, THF): slightly soluble

Compound: Nc1cccc2c1C(=O)N(C1CCC(=O)NC1=O)C2=O (stereo not shown) [Pomalidomide Form M]
- hygroscopicity / water take-up [5]: did not take-up any water; also recorded: non-hygroscopic
- relative stability of crystal form [6]: higher stability than both Form B and Form O
